According to patent US20240238379A1, “Compositions and Methods for the Prevention and Treatment of Stress-Induced Fear, Depressive-Like and Anxiety-Like Behavior” (The Trustees of Columbia University in the City of New York, priority 2021, published 2024):

Key:
129S6/SvEv mice [1] = experiment: Contextual fear conditioning (CFC) freezing; type: in vivo; conditions: for Freezing upon CFC re-exposure, (R,S)-ketamine versus saline: female mice, IP 10 mg/kg one week before CFC
Protocol: Saline, (R,S)-ketamine (10 mg/kg), or Bay 55-9837 (2.5 or 5 mg/kg) was administered 1 week prior to 3-shock contextual fear conditioning (CFC) stress in female 129S6/SvEv mice. Five days later, mice were assayed for fear, behavioral despair, locomotion, exploratory behavior, and hyponcophagia.
Male 129S6/SvEv mice were administered the same behavioral paradigm as described in Example 1. […] There was no effect of drug on immobility time during FST Day 1.
Female 129S6/SvEv mice were given a single injection of saline, (R,S)-ketamine (10 mg/kg), or Bay 55-9837 (2.5 mg/kg) 5 minutes after 3-shock CFC training.
Male 129S6/SvEv mice were administered the same behavioral paradigm as in Example 3. […] Similarly, in the NSF, Bay 55-9837, but not (R,S)-ketamine suppressed latency to feed in the OF when compared with saline controls.
Female 129S6/SEv mice were administered a single injection of saline of Bay 55-9837 (2.5 mg/kg) and placed in Piezo sleep boxes. One week later, mice were administered 3-shock CFC training or context exposure and again placed back into Piezo sleep boxes. Five days later, mice were re-exposed to the training context. […] During CFC training, there was no effect of drug. […] There was a significant effect of drug and stress as well as a drug x stress interaction.
(§1) Female 129S6/SvEv mice were administered an intracerebroventricular infusion of artificial cerebrospinal fluid, PACAP (6-38) (VPAC2 antagonist), or Bay 55-9837. Five minutes after, mice were given an IP injection of saline or (R,S)-ketamine (10 mg/kg). One week later, mice were administered 3-shock CFC training. Five days subsequently, mice were tested in CFC re-exposure and the FST. […] Upon CFC re-exposure, there was a significant group x drug interaction. […] In the PACAP (6-38) group, the prophylactic effect of (R,S)-ketamine was blocked.

129S6/SvEv mice [2] = experiment: Forced swim test (FST); type: in vivo; conditions: female mice
Protocol: as §1, with “blocked. […]” for “blocked.”

| Compound | Freezing upon CFC re-exposure, (R,S)-ketamine versus saline (129S6/SvEv mice [1]; PACAP(6-38) ICV group) | Freezing upon CFC re-exposure, (R,S)-ketamine versus saline (129S6/SvEv mice [1]; Vehicle ICV group) | Freezing during CFC re-exposure (129S6/SvEv mice [1]; male mice, same paradigm as Example 3) | Freezing during CFC training (129S6/SvEv mice [1]; male mice, same paradigm as Example 3 (single injection 5 minutes after 3-shock CFC training)) | Behavioral despair on FST Day 2 (129S6/SvEv mice [2]; 1 week prior to 3-shock CFC stress, 10 mg/kg) | Immobility time on Day 2 of the FST (129S6/SvEv mice [2]; 5 minutes after 3-shock CFC training, 10 mg/kg) | Immobility on FST Day 2 compared with Vehicle/saline (129S6/SvEv mice [2]; ICV Vehicle then IP (R,S)-ketamine 10 mg/kg) | Prophylactic effect of (R,S)-ketamine on FST Day 2 (129S6/SvEv mice [2]; ICV PACAP (6-38) then IP (R,S)-ketamine 10 mg/kg) |
| --- | --- | --- | --- | --- | --- | --- | --- | --- |
| CNC1(c2ccccc2Cl)CCCCC1=O (racemic) [(R,S)-ketamine] | not significantly different | not significantly different | did not significantly alter | did not significantly alter | reduced | significantly reduced | significantly lower |  |
| PACAP (6-38) |  |  |  |  |  |  |  | blocked |
